Reference: patent US9302999B2, “Substituted triazoles as herbicides” (E. I. DU PONT DE NEMOURS AND COMPANY, priority 2012, dated 2016)
Read-outs that look alike come from different tables or passages of the source.

Assays:
Format in all cases: in vivo
[1] = test system: winter wheat (Triticum aestivum); experiment: Test C pre-/postemergence: winter wheat
Summary of the method: (§1)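 Visual injury scored 0–100 (100 = complete control) against untreated controls after 13–15 greenhouse days. Surfactant-containing solvent formulations applied either to soil after sowing (loam/sand) or over 1- to 4-leaf plants, 2–18 cm tall.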

[2] = test system: lambsquarters (Chenopodium album); experiment: Test C pre-/postemergence: lambsquarters
Summary of the method: as §1

[3] = test system: pigweed (Amaranthus retroflexus); experiment: Test A pre-/postemergence: pigweed; conditions: for pest or weed control at 125 g/ha / pest or weed control at 500 g/ha: Amaranthus retroflexus, 240 h
Summary of the method: (§2)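 Pre: directed soil spray after planting in loam + sand. Post: same formulation (non-phytotoxic solvent + surfactant) on 1–2-leaf plants, 2–10 cm. Greenhouse ~10 d; visual injury 0–100 vs untreated.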

[4] = test system: barnyardgrass (Echinochloa crus-galli); experiment: Test A pre-/postemergence: barnyardgrass; conditions: for pest or weed control at 125 g/ha / pest or weed control at 500 g/ha: Echinochloa crus-galli, 240 h
Summary of the method: as §2

[5] = test system: barnyardgrass (Echinochloa crus-galli); experiment: Test B flooded paddy: barnyardgrass; conditions: Flood; 250 g ai/ha; applied to paddy water at 2-leaf stage; visually evaluated after 13 to 15 days
Summary of the method: (§3)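 Greenhouse assay lasting 13 to 15 days. Treatment was into water flooding pots 3 cm deep, at the 2-leaf stage, with that level sustained afterwards. Scores compare treated with control plants visually, 100 denoting complete control and 0 no effect; a dash marks no test result.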

[6] = test system: wheat (Triticum aestivum); experiment: Test A pre-/postemergence: wheat; conditions: for plant injury at 125 g/ha / plant injury at 500 g/ha: Triticum aestivum, 240 h
Summary of the method: as §2

[7] = test system: ryegrass, Italian (Italian ryegrass, Lolium multiflorum); experiment: Test C pre-/postemergence: ryegrass, Italian
Summary of the method: as §1

soybean (Glycine max) = experiment: Test C pre-/postemergence: soybean
Summary of the method: as §1

[8] = test system: sedge, umbrella (small-flower umbrella sedge Cyperus difformis); experiment: Test B flooded paddy: sedge, umbrella; conditions: Flood; 250 g ai/ha; applied to paddy water at 2-leaf stage; visually evaluated after 13 to 15 days
Summary of the method: as §3

rice (Oryza sativa) = experiment: Test B flooded paddy: rice; conditions: Flood; 250 g ai/ha; applied to paddy water at 2-leaf stage; visually evaluated after 13 to 15 days
Summary of the method: as §3

[9] = test system: pigweed (Amaranthus retroflexus); experiment: Test C pre-/postemergence: pigweed
Summary of the method: as §1

[10] = Postemergence, 31 g ai/ha, scale 0 to 100 (0 no effect, 100 complete control)
[11] = Postemergence, 62 g ai/ha, scale 0 to 100 (0 no effect, 100 complete control)
[12] = Postemergence, 125 g ai/ha, scale 0 to 100, 0 no effect, 100 complete control
[13] = Postemergence, 250 g ai/ha, scale 0 to 100 (0 no effect, 100 complete control)
[14] = Preemergence, 31 g ai/ha, scale 0 (no effect) to 100 (complete control)
[15] = Preemergence, 62 g ai/ha, scale 0 to 100, 0 no effect, 100 complete control
[16] = Preemergence, 125 g ai/ha, scale 0 to 100, 0 no effect, 100 complete control
[17] = Preemergence, 250 g ai/ha, scale 0 to 100, 0 no effect, 100 complete control
[18] = Preemergence, 62 g ai/ha, scale of 0 to 100, 0 is no effect, 100 is complete control
[19] = Postemergence, 125 g ai/ha, 0 to 100 scale, 0 is no effect, 100 is complete control
[20] = Postemergence, 500 g ai/ha, 0 to 100 scale, 0 is no effect, 100 is complete control
[21] = Preemergence, 125 g ai/ha, 0 to 100 scale where 0 is no effect and 100 is complete control
[22] = Preemergence, 500 g ai/ha, 0 to 100 scale (0 no effect, 100 complete control)

CCOc1nn(-c2ccc(F)cc2)nc1Cc1ccnc(C(F)(F)F)c1 [Compound 196, 4-[[5-ethoxy-2-(4-fluorophenyl)-2H-1,2,3-triazol-4-yl]methyl]-2-(trifluoromethyl)pyridine]
Plant response rating, Wheat [1, 10]: 15
Plant response rating, Wheat [1, 11]: 35
Plant response rating, Wheat [1, 12]: 45
Plant response rating, Wheat [1, 13]: 45
Plant response rating, Wheat [1, 14]: 0
Plant response rating, Wheat [1, 15]: 15
Plant response rating, Wheat [1, 16]: 40
Plant response rating, Wheat [1, 17]: 50
Plant response rating, Lambsquarters [2, 10]: 95
Plant response rating, Lambsquarters [2, 11]: 95
Plant response rating, Lambsquarters [2, 12]: 95
Plant response rating, Lambsquarters [2, 13]: 95
Plant response rating, Lambsquarters [2, 14]: 85
Plant response rating, Lambsquarters [2, 15]: 90
Plant response rating, Lambsquarters [2, 16]: 95
Plant response rating, Lambsquarters [2, 17]: 95
pest or weed control at 125 g/ha ([3]; post-emergence, Postemergence, 125 g ai/ha, 0 to 100 scale, 0 is no effect, 100 is complete control, read-out: Plant response rating, Pigweed): 100%
pest or weed control at 500 g/ha ([3]; post-emergence, Postemergence, 500 g ai/ha, 0 to 100 scale, 0 is no effect, 100 is complete control, read-out: Pigweed plant response rating): 100%
pest or weed control at 125 g/ha ([3]; pre-emergence, Preemergence, 125 g ai/ha, 0 to 100 scale where 0 is no effect and 100 is complete control, read-out: Plant response rating, Pigweed): 100%
pest or weed control at 500 g/ha ([3]; pre-emergence, Preemergence, 500 g ai/ha, 0 to 100 scale (0 no effect, 100 complete control), read-out: Plant response rating, Pigweed): 100%
pest or weed control at 125 g/ha ([4]; post-emergence, Postemergence, 125 g ai/ha, 0 to 100 scale, 0 is no effect, 100 is complete control, read-out: Plant response rating, Barnyardgrass): 80%
pest or weed control at 500 g/ha ([4]; post-emergence, Postemergence, 500 g ai/ha, 0 to 100 scale, 0 is no effect, 100 is complete control, read-out: Barnyardgrass plant response rating): 90%
pest or weed control at 125 g/ha ([4]; pre-emergence, Preemergence, 125 g ai/ha, 0 to 100 scale where 0 is no effect and 100 is complete control, read-out: Plant response rating, Barnyardgrass): 100%
pest or weed control at 500 g/ha ([4]; pre-emergence, Preemergence, 500 g ai/ha, 0 to 100 scale (0 no effect, 100 complete control), read-out: Plant response rating, Barnyardgrass): 100%
Plant response rating, Barnyardgrass (0 to 100 scale, 0 is no effect, 100 is complete control) [5]: 85
plant injury at 125 g/ha ([6]; post-emergence, Postemergence, 125 g ai/ha, 0 to 100 scale, 0 is no effect, 100 is complete control, read-out: Plant response rating, Wheat): 50%
plant injury at 500 g/ha ([6]; post-emergence, Postemergence, 500 g ai/ha, 0 to 100 scale, 0 is no effect, 100 is complete control, read-out: Wheat plant response rating): 70%
plant injury at 125 g/ha ([6]; pre-emergence, Preemergence, 125 g ai/ha, 0 to 100 scale where 0 is no effect and 100 is complete control, read-out: Plant response rating, Wheat): 50%
plant injury at 500 g/ha ([6]; pre-emergence, Preemergence, 500 g ai/ha, 0 to 100 scale (0 no effect, 100 complete control), read-out: Plant response rating, Wheat): 70%
Plant response rating, Ryegrass, Italian [7, 10]: 35
Plant response rating, Ryegrass, Italian [7, 11]: 60
Plant response rating, Ryegrass, Italian [7, 12]: 85
Plant response rating, Ryegrass, Italian [7, 13]: 85
Plant response rating, Ryegrass, Italian [7, 14]: 80
Plant response rating, Ryegrass, Italian [7, 15]: 90
Plant response rating, Ryegrass, Italian [7, 16]: 90
Plant response rating, Ryegrass, Italian [7, 17]: 90
Plant response rating, Soybean (soybean (Glycine max); [10]): 45
Plant response rating, Soybean (soybean (Glycine max); [11]): 50
Plant response rating, Soybean (soybean (Glycine max); [12]): 65
Plant response rating, Soybean (soybean (Glycine max); [13]): 70
Plant response rating, Soybean (soybean (Glycine max); [14]): 10
Plant response rating, Soybean (soybean (Glycine max); [15]): 15
Plant response rating, Soybean (soybean (Glycine max); [16]): 30
Plant response rating, Soybean (soybean (Glycine max); [17]): 35
Plant response rating, Sedge, Umbrella (0 to 100 scale, 0 is no effect, 100 is complete control) [8]: 100
Plant response rating, Rice (0 to 100 scale, 0 is no effect, 100 is complete control) (rice (Oryza sativa)): 70
Plant response rating, Pigweed [9, 10]: 98
Plant response rating, Pigweed [9, 11]: 98
Plant response rating, Pigweed [9, 12]: 98
Plant response rating, Pigweed [9, 13]: 98
Plant response rating, Pigweed [9, 14]: 95
Plant response rating, Pigweed [9, 15]: 98
Plant response rating, Pigweed [9, 16]: 98
Plant response rating, Pigweed [9, 17]: 98

CCCc1nn(-c2ccc(F)c(F)c2)nc1Oc1ccnc(C(F)(F)F)c1 [Compound 172]
Plant response rating, Wheat [1, 10]: 10
Plant response rating, Wheat [1, 11]: 20
Plant response rating, Wheat [1, 12]: 25
Plant response rating, Wheat [1, 13]: 30
Plant response rating, Wheat [1, 14]: 15
Plant response rating, Wheat [1, 18]: 40
Plant response rating, Wheat [1, 16]: 45
Plant response rating, Wheat [1, 17]: 45
Plant response rating, Lambsquarters [2, 10]: 98
Plant response rating, Lambsquarters [2, 11]: 98
Plant response rating, Lambsquarters [2, 12]: 98
Plant response rating, Lambsquarters [2, 13]: 98
Plant response rating, Lambsquarters [2, 14]: 90
Plant response rating, Lambsquarters [2, 18]: 90
Plant response rating, Lambsquarters [2, 16]: 95
Plant response rating, Lambsquarters [2, 17]: 95
Plant response rating, Pigweed [3, 19]: 100
Pigweed plant response rating [3, 20]: 100
Plant response rating, Pigweed [3, 21]: 100
Plant response rating, Pigweed [3, 22]: 100
Plant response rating, Barnyardgrass [4, 19]: 90
Barnyardgrass plant response rating [4, 20]: 90
Plant response rating, Barnyardgrass (0 to 100 scale, 0 is no effect, 100 is complete control) [5]: 80
Plant response rating, Wheat [6, 19]: 40
Wheat plant response rating [6, 20]: 50
Plant response rating, Wheat [6, 21]: 50
Plant response rating, Wheat [6, 22]: 70
Plant response rating, Ryegrass, Italian [7, 10]: 10
Plant response rating, Ryegrass, Italian [7, 11]: 20
Plant response rating, Ryegrass, Italian [7, 12]: 35
Plant response rating, Ryegrass, Italian [7, 13]: 40
Plant response rating, Ryegrass, Italian [7, 14]: 100
Plant response rating, Ryegrass, Italian [7, 18]: 100
Plant response rating, Ryegrass, Italian [7, 16]: 100
Plant response rating, Ryegrass, Italian [7, 17]: 100
Plant response rating, Soybean (soybean (Glycine max); [10]): 35
Plant response rating, Soybean (soybean (Glycine max); [11]): 45
Plant response rating, Soybean (soybean (Glycine max); [12]): 60
Plant response rating, Soybean (soybean (Glycine max); [13]): 60
Plant response rating, Soybean (soybean (Glycine max); [14]): 5
Plant response rating, Soybean (soybean (Glycine max); [18]): 10
Plant response rating, Soybean (soybean (Glycine max); [16]): 10
Plant response rating, Soybean (soybean (Glycine max); [17]): 35
Plant response rating, Sedge, Umbrella (0 to 100 scale, 0 is no effect, 100 is complete control) [8]: 75
Plant response rating, Rice (0 to 100 scale, 0 is no effect, 100 is complete control) (rice (Oryza sativa)): 50
Plant response rating, Pigweed [9, 10]: 98
Plant response rating, Pigweed [9, 11]: 98
Plant response rating, Pigweed [9, 12]: 98
Plant response rating, Pigweed [9, 13]: 98
Plant response rating, Pigweed [9, 14]: 100
Plant response rating, Pigweed [9, 18]: 100
Plant response rating, Pigweed [9, 16]: 100
Plant response rating, Pigweed [9, 17]: 100
